Assay results published in patent publication US20230165252A1, “ACTIVE COMPOUND COMBINATIONS” (Bayer Aktiengesellschaft, priority 2020, published 2023).
Where two headings read alike, the source gives them in different places.

Tests used:
Type in all cases: cell-based
[1] = test system: Ustilago segetum var. avenae; assay: in vitro-Test with Ustilago segetum var. avenae (microtiter growth inhibition); conditions: single compound, read-out: Efficacy %
Experimental: (§1) The degree of efficacy expressed in % is denoted: 0% means an efficacy, which corresponds to that of the control, while an efficacy of 100% means that no disease is observed.
(§2) If the actual fungicidal activity exceeds the calculated value, then the activity of the combination is super-additive, i.e. a synergistic effect exists. In this case, the efficacy, which was actually observed, must be greater than the value for the expected efficacy (E), that was calculated from the abovementioned formula.
(§3) Example: In Vitro-Test with Fungal Microorganisms
(§4) Wells of 96-well microtiter plates are filled with 10 μl of a preparation of test compound or compound combination in methanol+emulsifier alkylaryl-polyglycol-ether. Thereafter, the solvent is evaporated in a hood. At the next step, 100 μl of liquid potato dextrose medium is given into each well, that has been amended with an appropriate concentration of spores or mycelium suspension of the test fungus.
(§5) With the aid of a photometer, the extinction in all wells is measured at the wavelength of 620 nm.
(§6) The microtiter plates are incubated at 20° C. and 85% relative humidity. The inhibition of growth is determined again photometrically 3-5 days after the application. Efficacy is calculated in relation to the untreated control, 0% efficacy means fungal growth as high as in untreated control while 100% efficacy means no fungal growth is measured.

Fusarium culmorum = assay: in vitro-Test with Fusarium culmorum (microtiter growth inhibition); conditions: Fusarium culmorum, read-out: Efficacy
Experimental: as §1, §2, §3, §4, §5, §6

Alternaria alternate = assay: in vitro-Test with Alternaria alternate (microtiter growth inhibition); conditions: Alternaria
Experimental: as §1, §2, §3, §4, §5, §6

Cercospora beticola = assay: in vitro-Test with Cercospora beticola (microtiter growth inhibition); conditions: Cercospora beticola, alone, read-out: Efficacy %
Experimental: as §1, §2, §3, §4, §5, §6

Cordana musae = assay: in vitro-Test with Cordana musae (microtiter growth inhibition); conditions: Neocordana musae, single substance, read-out: Efficacy
Experimental: as §1, §2, §3, §4, §5, §6

Diaporthe citri = assay: in vitro-Test with Diaporthe citri (microtiter growth inhibition); conditions: applied alone
Experimental: as §2, §3, §4, §5, §6

Botrytis cinerea = assay: in vitro-Test with Botrytis cinerea (microtiter growth inhibition); conditions: applied alone
Experimental: as §1, §2, §3, §4, §5, §6

[2] = applied alone, read-out: Efficacy
[3] = Diaporthe citri, read-out: Efficacy

Compound	inhibition of growth at 0.04 ppm (Fusarium culmorum)	inhibition of growth at 1 ppm (Fusarium culmorum)	inhibition of growth at 0.008 ppm (Alternaria alternate; alone, read-out: Efficacy %)	inhibition of growth at 0.04 ppm (Alternaria alternate; alone, read-out: Efficacy %)	inhibition of growth at 1 ppm (Alternaria alternate; alone, read-out: Efficacy %)	inhibition of growth at 0.008 ppm (Alternaria alternate; [2])	inhibition of growth at 0.2 ppm (Alternaria alternate; [2])	inhibition of growth at 0.008 ppm (Cercospora beticola)	inhibition of growth at 0.2 ppm (Cercospora beticola)	inhibition of growth at 1 ppm (Cercospora beticola)	inhibition of growth at 0.04 ppm (Diaporthe citri; [3])	inhibition of growth at 1 ppm (Diaporthe citri; [3])	inhibition of growth at 0.8 ppm (Fusarium culmorum)	inhibition of growth at 4 ppm (Fusarium culmorum)	inhibition of growth at 20 ppm (Fusarium culmorum)	inhibition of growth at 0.8 ppm (Alternaria alternate; alone, read-out: Efficacy %)	inhibition of growth at 4 ppm (Alternaria alternate; alone, read-out: Efficacy %)	inhibition of growth at 0.8 ppm (Cordana musae)	inhibition of growth at 4 ppm (Cordana musae)	inhibition of growth at 20 ppm (Cordana musae)	other results
CC1COC(Cn2cncn2)(c2ccc(Oc3ccc(Cl)cc3)cc2Cl)O1 (stereo not shown) [difenoconazole]	8%	0%	8%	4%	98%	11%	3%	9%	68%	100%	13%	88%									inhibition of growth at 0.04 ppm ([1]; 0.04 ppm): 4%; inhibition of growth at 0.2 ppm ([1]; 0.2 ppm): 70%; inhibition of growth at 1 ppm ([1]; 1.0 ppm): 100%; inhibition of growth at 0.008 ppm (Fusarium culmorum; 0.008 ppm): 3%; inhibition of growth at 0.2 ppm (Fusarium culmorum; 0.2 ppm): 0%; inhibition of growth at 0.008 ppm (Cordana musae; 0.008 ppm): 0%; inhibition of growth at 1 ppm (Cordana musae; 1.0 ppm): 42%; Efficacy (Diaporthe citri; 0.008 ppm): 0%
N#Cc1sc2c(=O)c3ccccc3c(=O)c=2sc1C#N [dithianon]													0%	39%	100%	0%	71%	9%	99%	98%	inhibition of growth at 20 ppm (Alternaria alternate; 20 ppm, alone, read-out: Efficacy %): 100%; inhibition of growth at 4 ppm (Cercospora beticola; 4 ppm): 99%; inhibition of growth at 20 ppm (Cercospora beticola; 20 ppm): 98%; inhibition of growth at 0.8 ppm (Diaporthe citri; [3]): 34%; inhibition of growth at 4 ppm (Diaporthe citri; [3]): 98%; inhibition of growth at 20 ppm (Diaporthe citri; [3]): 97%
COc1cc(C)c(C(=O)c2c(OC)ccc(Br)c2C)c(OC)c1OC [Compound 15.016, metrafenone]													0%	0%	0%			0%		22%	
CCCN(CC)CC1COC2(CCC(C(C)(C)C)CC2)O1 (stereo not shown) [spiroxamine]													0%	0%	2%	1%	1%		0%	4%	inhibition of growth at 0.8 ppm ([1]; 0.8 ppm): 0%; inhibition of growth at 4 ppm ([1]; 4 ppm): 0%; inhibition of growth at 20 ppm ([1]; 20 ppm): 87%; Efficacy (Botrytis cinerea; 0.8 ppm): 5%; Efficacy (Botrytis cinerea; 4 ppm): 4%; inhibition of growth at 0.8 ppm (Diaporthe citri; [3]): 0%; inhibition of growth at 4 ppm (Diaporthe citri; [3]): 0%; inhibition of growth at 20 ppm (Diaporthe citri; [3]): 6%
CC(C)(C)C(O)(CCc1ccc(Cl)cc1)Cn1cncn1 (stereo not shown) [tebuconazole]	0%	99%	11%	9%	98%	0%	48%	0%	83%	100%	47%	98%									inhibition of growth at 0.2 ppm (Alternaria alternate; alone, read-out: Efficacy %): 32%; inhibition of growth at 0.04 ppm (Alternaria alternate; [2]): 14%; inhibition of growth at 1 ppm (Alternaria alternate; [2]): 99%; inhibition of growth at 0.04 ppm (Cercospora beticola; 0.04 ppm): 22%; inhibition of growth at 0.2 ppm (Cordana musae; 0.2 ppm): 2%; Efficacy (Botrytis cinerea; 0.008 ppm): 0%; Efficacy (Botrytis cinerea; 0.04 ppm): 8%; Efficacy (Botrytis cinerea; 0.2 ppm): 20%; Efficacy (Botrytis cinerea; 1.0 ppm): 100%; inhibition of growth at 0.2 ppm (Diaporthe citri; Diaporthe citri, 0.2 ppm, read-out: Efficacy): 96%
